Results reported in patent US11154060B2, “Microbiocidal oxadiazole derivatives” (SYNGENTA PARTICIPATIONS AG, priority 2016, dated 2021).

How the values were obtained:
[1] = tested on: Puccinia recondita f. sp. tritici; test: Puccinia recondita f. sp. tritici / wheat / leaf disc curative (brown rust); assay type: in vivo; conditions: foliar, wheat leaf segments cv. Kanzler, applied 1 day after inoculation, assessed 6-8 days after application, read-out: control of Puccinia recondita f. sp. tritici compared to untreated control
Summary of the method: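 Wheat cv. Kanzler leaf segments on agar, inoculated with brown rust spores and kept dark at 19 °C, 75% rh; formulated compound sprayed 1 day after inoculation (curative). Incubated 19 °C, 75% rh, 12 h light/dark; percent disease control vs untreated scored 6–8 days after application.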

[2] = tested on: Glomerella lagenarium (Colletotrichum lagenarium); test: Glomerella lagenarium (Colletotrichum lagenarium) liquid culture / cucumber / preventative (anthracnose); assay type: cell-based; conditions: Colletotrichum orbiculare, liquid culture in PDB, 24° C., 3-4 days after application, read-out: control of Glomerella lagenarium compared to untreated control (inhibition of growth, photometric)
Summary of the method: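 Conidia from cryogenic storage mixed into potato dextrose broth and added to compound diluted from DMSO stock with 0.025% Tween20. Incubated at 24 °C; growth inhibition read photometrically 3–4 days after application, as percent antifungal activity versus untreated check.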

[3] = tested on: Uromyces viciae-fabae; test: Uromyces viciae-fabae / field bean / leaf disc preventative (faba-bean rust); assay type: in vivo; conditions: foliar, 288 h, 100 ppm in the applied formulation, field bean leaf discs, inoculated two hours after application, 12 days after application, read-out: disease control compared to untreated control leaf discs
Description: Leaf disks or leaf segments of various plant species are cut from plants grown in a greenhouse. The cut leaf disks or segments are placed in multiwell plates (24-well format) onto water agar. The leaf disks are sprayed with a test solution before (preventative) or after (curative) inoculation. Compounds to be tested are prepared as DMSO solutions (max. 10 mg/ml) which are diluted to the appropriate concentration with 0.025% Tween20 just before spraying. The inoculated leaf disks or segments are incubated under defined conditions (temperature, relative humidity, light, etc.) according to the respective test system. A single evaluation of disease level is carried out 3 to 14 days after inoculation, depending on the pathosystem. Percent disease control relative to the untreated check leaf disks or segments is then calculated. Field bean leaf discs are placed on water agar in multiwell plates (96-well format) and 10 μl of the formulated test compound diluted in acetone and a spreader pipetted onto the leaf disc. Two hours after application leaf discs are inoculated by spraying a spore suspension on the lower leaf surface. The leaf discs are incubated in a climate cabinet at 22° C. with 18 hour day and 70% relative humidity. The activity of a compound is assessed as percent disease control compared to untreated when an appropriate level of disease damage appears in untreated check leaf disks (12 days after application).

[4] = tested on: Puccinia recondita f. sp. tritici; test: Puccinia recondita f. sp. tritici / wheat / leaf disc preventative (brown rust); assay type: in vivo; conditions: foliar, wheat leaf segments cv. Kanzler, inoculated 1 day after application, assessed 7-9 days after application, read-out: control of Puccinia recondita f. sp. tritici compared to untreated control
Summary of the method: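 Wheat leaf segments (cv. Kanzler) on water agar sprayed with compound diluted from DMSO stock in water/0.025% Tween20, then inoculated with P. recondita spores 1 day later. Incubated at 19 °C, 75% rh, 12 h light/dark. Percent disease control versus untreated assessed 7-9 days after application.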

[5] = tested on: Phakopsora pachyrhizi; test: Phakopsora pachyrhizi / soybean / leaf disc preventative (Asian soybean rust); assay type: in vivo; conditions: foliar, soybean leaf disks, inoculated one day after application, assessed 12-14 days after application, read-out: control of Phakopsora pachyrhizi compared to untreated control
Summary of the method: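 Soybean leaf discs on water agar sprayed with formulated compound diluted in water; spore suspension sprayed on lower surface 1 day later. Kept 24-36 h dark at 20° C, 75% rh, then 12 h light/12 h dark. Percent disease control versus untreated scored 12-14 days after application.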

| SMILES | pest or weed control at 200 ppm [1] [%] | inhibition at 20 ppm [2] [%] | melting point [°C] | pest or weed control at 100 ppm [3] [%] | pest or weed control at 200 ppm [4] [%] | pest or weed control at 200 ppm [5] [%] |
| --- | --- | --- | --- | --- | --- | --- |
| O=C(c1ccc(-c2noc(C(F)(F)F)n2)cc1F)N1CCCO1 [Compound 1.26, [2-fluoro-4-[5-(trifluoromethyl)-1,2,4-oxadiazol-3-yl]phenyl]-isoxazolidin-2-yl-methanone] | ≥ 80 | ≥ 80 | 60.3 to 62.4 | ≥ 80 | ≥ 80 | – |
| O=C(c1ccc(-c2noc(C(F)(F)F)n2)cc1F)N1CCCCO1 [Compound 1.27, [2-fluoro-4-[5-(trifluoromethyl)-1,2,4-oxadiazol-3-yl]phenyl]-(oxazinan-2-yl)methanone] | ≥ 80 | ≥ 80 | 57.3 to 59.4 | ≥ 80 | ≥ 80 | ≥ 80 |
| C=CCONC(=O)c1ccc(-c2noc(C(F)(F)F)n2)cc1 [Compound 2.12, N-allyloxy-4-[5-(trifluoromethyl)-1,2,4-oxadiazol-3-yl]benzamide] | ≥ 80 | ≥ 80 | 134 to 135 | ≥ 80 | ≥ 80 | ≥ 80 |
| C#CCONC(=O)c1ccc(-c2noc(C(F)(F)F)n2)cc1 [Compound 2.11, N-prop-2-ynoxy-4-[5-(trifluoromethyl)-1,2,4-oxadiazol-3-yl]benzamide] | ≥ 80 | ≥ 80 | 167 to 169 | ≥ 80 | ≥ 80 | ≥ 80 |
| O=C(c1ccc(-c2noc(C(F)(F)F)n2)cc1)N1OC2CCC1CC2 [Compound 2.24, 2-oxa-3-azabicyclo[2.2.2]octan-3-yl-[4-[5-(trifluoromethyl)-1,2,4-oxadiazol-3-yl]phenyl]methanone] | ≥ 80 | ≥ 80 | 120 to 121 | ≥ 80 | – | ≥ 80 |
| CONC(=O)c1ccc(-c2noc(C(F)(F)F)n2)cc1F [Compound 1.1, 2-fluoro-N-methoxy-4-[5-(trifluoromethyl)-1,2,4-oxadiazol-3-yl]benzamide] | ≥ 80 | ≥ 80 | 122 to 125 | ≥ 80 | ≥ 80 | ≥ 80 |
| O=C(c1ccc(-c2noc(C(F)(F)F)n2)cc1)N1OC2C=CC1CC2 (stereo not drawn) [Compound 2.23, 2-oxa-3-azabicyclo[2.2.2]oct-5-en-3-yl-[4-[5-(trifluoromethyl)-1,2,4-oxadiazol-3-yl]phenyl]methanone] | ≥ 80 | ≥ 80 | 89 | ≥ 80 | ≥ 80 | ≥ 80 |
| CC(CC#N)ONC(=O)c1ccc(-c2noc(C(F)(F)F)n2)cc1F (stereo not drawn) [Compound 1.11, N-(2-cyano-1-methyl-ethoxy)-2-fluoro-4-[5-(trifluoromethyl)-1,2,4-oxadiazol-3-yl]benzamide] | ≥ 80 | ≥ 80 | 85.8 to 88 | ≥ 80 | ≥ 80 | ≥ 80 |
| CON(C(=O)c1ccc(-c2noc(C(F)(F)F)n2)cc1F)C(C)Cc1c(Cl)cc(Cl)cc1Cl (stereo not drawn) [Compound 1.4, 2-fluoro-N-methoxy-N-[1-methyl-2-(2,4,6-trichlorophenyl)ethyl]-4-[5-(trifluoromethyl)-1,2,4-oxadiazol-3-yl]benzamide] | – | – | 83.5 to 86.2 | ≥ 80 | – | – |
